# Assays:
# [1] = system: MDA-MB 231 cells; assay: WST-1 cell viability assay; type: cell-based, human; conditions: 24 h
# Method: (§1) Cell viability was determined by WST-1 (4-[3-(4-Iodophenyl)-2-(4-nitrophenyl) -2H-5-tetrazolio]-1,3-benzene disulfonate) assay (Roche). Cells were incubated with or without TKI or CPPP. After culturing for another 24 h, one-tenth volume of WST-1 was added at 4 h before harvest, and the absorbance was detected at 450 nm. Cell viability was normalized by the absorbance from the cells without treatment.
# [2] = system: MDA-MB 468 cells; assay: WST-1 cell viability assay; type: cell-based, human; conditions: 24 h
# Method: as §1
# [3] = system: MDA-MB 468 cells; assay: Subcutaneous MDA-MB 468 xenograft; type: in vivo, nude mice; conditions: 200 nmol/mouse, intratumoral injection; for tumor volume compared with control or scrambled peptides / tumor mass compared with control or scrambled peptide group: nude mice; for tumor volume compared with control or scrambled peptides: Fig. 5A, S1A; for tumor mass compared with control or scrambled peptide group: end of experiment, Fig. 5B, S1B
# Method: (§2) For subcutaneous implantation, MDA-MB 468 cells (1×10^7 in 100 µL of sterile Dulbecco's phosphate-buffered saline; PBS) were inoculated into nude mice by subcutaneous injection into the flanks. Each group contained 4 mice that were inoculated with tumor cells on both flanks (n = 8). When the tumors were palpable, mice were grouped randomly into 3–4 groups with 4 mice in each group. The mice were then treated with control vehicle, control scrambled peptide, Y211F CPPP, RF6 CPPP, or D-RF6 CPPP, by intratumoral injection. For orthotopic implantation, tumor xenografts were established by injection of Iressa-resistant MDA-MB 468 (IR) cells (1×10^7 resuspended in a 1∶1 mixture of PBS and Matrigel (BD Biosciences) in a total volume of 100 µL) into the mammary fat pad on either side of each 6–8-week old female severe combined immunodeficient (SCID) mice, respectively. When the tumors were palpable, the mice bearing IR tumor xenografts were treated with control vehicle, control scrambled peptide, D-RF6 CPPP (200 nmol/mouse) by intraperitoneal injection. Tumor growth was monitored 3 times/week for five weeks by measuring tumor perpendicular diameters. Tumor volume (V) was calculated using the following formula: V = length×diameter^2×0.5.
# (§3) Figure 5 The effect of CPPP on tumor growth in vivo. (A) Approximately 1×10^7 MDA-MB 468 cells were subcutaneously injected into the flanks of nude mice. When the tumors were palpable, mice were randomly divided into 4 groups and treated with PBS (Control), scrambled peptide for RF6 (Scramble), RF6 CPPP, or D-RF6 CPPP (200 nmol/mouse) by intratumoral injection. Tumor volume was measured the tumor volume at the indicated time point. (B) The weight of each of the harvested tumors from (A) was measured after treatment. (C) Approximately 1×10^7 Iressa-resistant MDA-MB 468 (MDA-MB 468/IR) cells were injected into the mammary fat pad on either side of SCID mice. When the tumors were palpable, mice were randomly divided into 3 groups and treated with PBS (Control), scrambled peptide for D-RF6 (Scramble), or D-RF6 CPPP (200 nmol/mouse) by intratumoral injection. Tumor volume was measured the tumor volume at the indicated time point. (D) The weight of each of the harvested tumors from (C) was measured after treatment. The curves and bars indicate mean ± S.D.; *, p<0.05; **, p<0.01; ***, p<0.001 by t-test. (E) Extracted tumor tissue lysates from (D), the protein levels of EGFR, p-Y211, PCNA and cleaved-caspase-3 were determined by IB.
# Supplementary file pone.0061362.s001.tif: Figure S1 The effect of Y211F CPPP on tumor growth in vivo. (A) Approximately 1×10^7 MDA-MB 468 cells were subcutaneously injected into the flanks of nude mice. When the tumors were palpable, mice were randomly divided into 3 groups and treated with PBS (Control), scrambled peptide for Y211 (Scramble), or Y211F CPPP (200 nmol/mouse) by intratumoral injection. Tumor volume was measured the tumor volume at the indicated time point. (B) The weight of each of the harvested tumors was measured after treatment. The curves and bars indicate mean ± S.D.; *, p<0.05; **, p<0.01; ***, p<0.001 by t-test. (TIF) Click here for additional data file.
# [4] = system: Iressa-resistant MDA-MB 468 (MDA-MB 468/IR) cells; assay: Orthotopic Iressa-resistant MDA-MB 468 xenograft (mammary fat pad); type: in vivo, SCID mice
# Method: as §2, §3
# [5] = system: MDA-MB 231 cells; assay: Apoptosis assay, Annexin V staining, flow cytometry; type: cell-based, human; conditions: 15 µM, 24 h
# Method: (§4) For apoptosis assay using annexin V staining, cells treated with the CPPP for 24 h and the cells were harvested and resuspended in the binding buffer and then incubated with FITC-conjugated Annexin V and propidium iodide (PI), according to the manufacturer's protocol (BD Biosciences). The percentage of apoptotic cells were assessed by flow cytometry.
# [6] = system: MDA-MB 468 cells; assay: as above; type: cell-based, human; conditions: 24 h
# Method: as §4
# [7] = system: MDA-MB 468 cells; conditions: 30 µM FITC-labeled peptide, 12 h, anti-EGFR staining, confocal microscopy, Fig. 2A
# Method: Confocal microscopy was performed as previously described [29].
# (A) MDA-MB 468 cells were treated with 30 µM FITC-labeled scrambled (FITC-Scrambled; top) or Y211F CPPP (FITC-Y211F; bottom) for 12 h. Subsequently, cells were fixed, permeabilized, and stained with anti-EGFR antibody or DAPI. The fluorescent images were observed under a confocal microscopy. The FITC-labeled peptide (green), EGFR (red), and nucleus (blue) are shown.
# [8] = system: Iressa-resistant MDA-MB 468 (IR); assay: Apoptosis assay, Annexin V staining; type: cell-based, human; conditions: 15 µM, 24 h, Fig. 3F
# Method: (§5) Human triple-negative breast cancer (TNBC) cell lines (MDA-MB 468, and MDA-MB 231) were purchased from American Type Culture Collection. All cells were maintained in DMEM/F12 (1∶1) with 10% FBS. EGFR TKI-resistant TNBC cell lines: Iressa-resistant MDA-MB 468 (IR) and Tarceva-resistant MDA-MB 468 (TR) were established by treatment with gradually increasing concentrations of these drugs for over one month. These TKI-resistant clones were cultured in the presence of 1 µM TKIs. The following peptides were synthesized by MDBio, Inc: Y211F CPPP (Y211F; […]); AK10 CPPP (AK10; […]); TF10 CPPP (TF10; […]); TN8 CPPP (TN8; […]); RK8 CPPP (RK8; […]); RF6 CPPP (RF6; […]); D-RF6 CPPP (D-RF6; […]); Scrambled peptides for Y211F (Scramble; […]); Scrambled peptides for RF6 (Scramble; […]). […]
# as §4
# (§6) Figure 3 The cytotoxic effect of CPPP in TKI-resistant TNBC cells. […] (E–F) The P-, IR-, or TR-TNBC cells were treated with 15 µM Y211F CPPP for 24 h and the relative cell viability (E) and Annexin V-positive cells (F) were determined. […]
# [9] = system: Tarceva-resistant MDA-MB 468 (TR); assay: Apoptosis assay, Annexin V staining; type: cell-based, human; conditions: 15 µM, 24 h, Fig. 3F
# Method: as §5, §4, §6
# [10] = system: Iressa-resistant MDA-MB 468 (IR); assay: WST-1 cell viability assay; type: cell-based, human; conditions: 15 µM, 24 h, Fig. 3E
# Method: as §5
# as §1, with “Cells were incubated with or without TKI or CPPP.” left out
# as §6
# [11] = system: Tarceva-resistant MDA-MB 468 (TR); assay: WST-1 cell viability assay; type: cell-based, human; conditions: 15 µM, 24 h, Fig. 3E
# Method: as §5
# as §1, with “Cells were incubated with or without TKI or CPPP.” left out
# as §6
# [12] = biological target: T1, nEGFR/PCNA (Homo sapiens, UniProt P00533); assay: Immunoprecipitation/immunoblot of chromatin lysates: nEGFR binding to PCNA; type: cell-based; conditions: 30 µM, 24 h, IP anti-PCNA, IB, Fig. 2B
# T1 construct: endogenous in cells; host or cells: MDA-MB 468 human TNBC cells (chromatin lysates)
# Method: Cell extraction, immunoprecipitation and Western blotting were performed as described previously, [29].
# The fluorescent images were observed under a confocal microscopy.
# [13] = system: MCF10A; assay: WST-1 cell viability assay; type: cell-based; conditions: up to 50 µM, 24 h, WST-1, Fig. 1B
# Method: as §1
# [14] = extracted tumor tissue lysates, IB, Fig. 5E
# [15] = 15 µM Y211F CPPP combined with 1∼8 µM EGFR TKI (Tarceva or Iressa), Fig. 2C-2F
# [16] = indicated concentrations, WST-1, Fig. 1B
sequence,measurement,setting,value
"YGRKKRRQRRRGRFLNFF [D-RF6 CPPP, synthetic retro-inverted D form derivative of RF6 CPPP]",growth suppression (relative cell viability) compared with RF6 CPPP,"[1]; indicated concentrations, Fig. 4F",enhanced the growth suppression
same,growth suppression (relative cell viability) compared with RF6 CPPP,"[2]; indicated concentrations, Fig. 4E",enhanced the growth suppression
same,"activity in suppressing tumor growth and reducing tumor volume, on an equimolar basis",[3]; compared with Y211F CPPP,more potent than Y211F CPPP
same,tumor mass compared with control or scrambled peptides,"[4]; 200 nmol/mouse, SCID mice, harvested tumors, Fig. 5D",significantly reduced tumor volume and mass
same,tumor volume compared with control or scrambled peptides,"[4]; 200 nmol/mouse, SCID mice, intratumoral (Fig. 5C legend) or intraperitoneal (methods) injection",significantly reduced tumor volume and mass
same,PCNA Y211 phosphorylation in tumor tissue,[4]; [14],inhibited
same,cleaved caspase-3 in tumor tissue,[4]; [14],cleaved caspase-3 increased
same,apoptosis activity (Annexin V-positive cells),[5]; Fig. 4G,enhanced the growth suppression and apoptosis activity
same,apoptosis activity (Annexin V-positive cells),"[6]; 15 µM, flow cytometry, Fig. 4G",enhanced the growth suppression and apoptosis activity
"YGRKKRRQRRRGTFALRFLNFFTK [Y211F CPPP, TAT-based cell-penetrating PCNA peptide, 12 amino acids flanking Y211 with tyrosine replaced by phenylalanine]","relative cell viability, combination with EGFR TKI",[1]; [15],enhanced the effect of both TKIs
same,cancer cells killed,"[1]; 50 µM, WST-1, Fig. 1B",more than 80%
same,relative cell viability,[1]; [16],suppressed cell viability
same,"relative cell viability, combination with EGFR TKI",[2]; [15],enhanced the effect of both TKIs
same,cancer cells killed,"[2]; 50 µM, WST-1, Fig. 1B",more than 80%
same,relative cell viability,[2]; [16],suppressed cell viability
same,targeting of EGFR,[7],specifically targeted EGFR
same,Annexin V-positive cells compared with parental cells,[8],more sensitive
same,Annexin V-positive cells compared with parental cells,[9],more sensitive
same,relative cell viability compared with parental cells,[10],more sensitive
same,relative cell viability compared with parental cells,[11],more sensitive
same,nEGFR binding to PCNA on chromatin,[12],prevented nEGFR from binding PCNA
same,tumor volume compared with control or scrambled peptides,[3],significantly reduced tumor volume
same,tumor mass compared with control or scrambled peptide group,[3],significantly smaller tumor mass
same,relative cell viability,[13],no effect
same,apoptotic response (Annexin V-positive cells),[5]; Fig. 1C,observed only in MDA-MB 468 and MDA-MB 231 cells
same,apoptotic response (Annexin V-positive cells),"[6]; 15 µM, flow cytometry, Fig. 1C",observed only in MDA-MB 468 and MDA-MB 231 cells
YGRKKRRQRRRGRFLNFF [RF6 CPPP],relative cell viability,"[2]; 50 µM of each CPPP derivative, Fig. 4B",minimal effective peptide
same,tumor volume compared with control or scrambled peptides,[3],significantly reduced tumor volume
same,tumor mass compared with control or scrambled peptide group,[3],significantly smaller tumor mass
same,apoptosis (Annexin V-positive cells),"[6]; 50 µM of each CPPP derivative, Fig. 4C",minimal effective peptide
